In the assay the test system is arthritic femur heads. Put plainly: Organ culture of arthritic femur heads with monocyte-derived macrophages, Safranin-O staining. The conditions noted are these: monocytes incubated with 10 μM RG108 for 45 min before 1 nM MCTR3. The assay is classed as cell-based, mouse. As to the method: FIG. 6: Arg-1 mediates the anti-inflammatory and cartilage protective activities of MCTR3-trained monocytes. (A,B) Femur heads and bone marrow-derived monocytes were collected 5 days following the induction of arthritis in C57BL/6 mice. Femur heads were incubated in serum free DMEM high glucose containing 1% insulin-transferrin-selenium for 48 hours and then in DMEM containing 10% FBS and 10 ng/ml IL-1B for 4 days. Monocytes were incubated with vehicle (PBS+0.1% EtOH) or 1 nM MCTR3 for 24 hours, then differentiated to monocyte-derived macrophages. Two days after the initiation of differentiation, cells were transfected with control siRNA or siRNA against Arg-1. […] Tissues were then collected and glycosaminoglycan content was evaluated using Safranin-O staining. (A) Representative images and (B) quantitation of Safranin-O staining. […] Statistical differences were evaluated using Wilcoxon signed rank test when assessing for differences vs Vehicle group and using one-way ANOVA and Kruskal Wallis post hoc test when evaluating differences vs MCTR3 treated group.
FIG. 12: DNMT enzyme inhibition reverses the ability of MCTR3 to upregulate Arg-1 in MDM and the cartilage protective activities of MCTR3-trained monocytes. […] The proteoglycan concentrations in the femur heads were assessed using Safranin O staining. […] Statistical differences were evaluated using one-sample Wilcoxon signed rank test. […]

With `O=C(O)C(Cc1c[nH]c2ccccc12)N1C(=O)c2ccccc2C1=O` (stereo not shown) [RG108], the “cartilage protective activities of MCTR3-trained monocytes” value is “reverses”.

The record behind these values is patent publication US20240269170A1, “Treatment of Inflammatory Conditions or Diseases” (Queen Mary University of London, priority 2021, published 2024).
